In order of rising logP:
1. CN(C)/N=N/c1ccc(C(=O)O)cc1  -0.29
2. CN(O)N=Nc1ccc(C(N)=O)cc1  -0.22
3. C#CCN(C)N=Nc1ccc(C(=O)O)cc1  -0.13
4. CCN(C)N=Nc1ccc(C(=O)O)cc1  0.03
5. CN(CCO)/N=N/c1ccc(C(N)=O)cc1  0.26
6. C=CCN(C)N=Nc1ccc(C(=O)O)cc1  0.38
7. CC(C)N(C)N=Nc1ccc(C(=O)O)cc1  0.42
8. CN(Cc1ccccc1)N=Nc1ccc(C(=O)O)cc1  0.94
9. CN(C)/N=N/c1ccc(C(N)=O)cc1  1.17
10. CCCCCCCN(C)N=Nc1ccc(C(=O)O)cc1  2.37
11. CCCCCCCCN(C)N=Nc1ccc(C(=O)O)cc1  2.96
12. CCCCCCN(C)N=Nc1ccc(C(N)=O)cc1  3.59
13. CCCCCCCN(C)/N=N/c1ccc(C(N)=O)cc1  4.15
14. CCCCCCCCCCCCN(C)N=Nc1ccc(C(=O)O)cc1  4.77
15. CCCCCCCCCCCCN(C)N=Nc1ccc(C(N)=O)cc1  6.58
16. CCCCCCCCCCCCCCCCCCN(C)N=Nc1ccc(C(=O)O)cc1  7.6

From the SangsterLogP compilation
